Data as given in ChEMBL document CHEMBL3351412, “Design, synthesis and biological evaluation of β-boswellic acid based HDAC inhibitors as inducers of cancer cell death” (Bioorg Med Chem Lett, 2014).

What was measured:
[1] = Cytotoxicity against human HL60 cells; format: functional, cell-based; conditions: HL-60
MCF7 = assay: Cytotoxicity against human MCF7 cells; format: functional, cell-based
[2] = Cytotoxicity against human MIAPaCa2 cells; format: functional, cell-based; conditions: MIA PaCa-2
[3] = biological target: T1, Histone deacetylase (Homo sapiens) (UniProt Q13547+O15379+Q9UBN7+Q92769+Q9UQL6+Q8WUI4+Q9BY41+Q96DB2+P56524+Q9UKV0+Q969S8); assay: Inhibition of HDAC (unknown origin) at 50 uM; format: protein assay
A549 = assay: Cytotoxicity against human A549 cells; format: functional, cell-based
[4] = Cytotoxicity against human FR2 cells; format: cell-based
Histone deacetylase = assay: Inhibition of HDAC (unknown origin); format: protein assay, Homo sapiens
[5] = Cytotoxicity against human HCT116 cells; format: functional, cell-based; conditions: HCT-116
[6] = biological target: T1, Histone deacetylase (Homo sapiens); assay: Inhibition of HDAC (unknown origin) at 30 uM; format: protein assay

For C[C@H]1[C@H](C)CC[C@]2(C)CC[C@]3(C)C(=CC[C@@H]4[C@@]5(C)CC[C@@H](O)[C@](C)(NC(=O)CCCC(=O)NO)[C@@H]5CC[C@]43C)[C@H]12, the IC50 [1] was 11.7 µM, the IC50 (MCF7) was 3.6 µM and the IC50 [2] was 8.8 µM. It also gave an inhibition [3] of 54%, an IC50 (A549) of over 20 µM and an IC50 [4] of over 20 µM. The IC50 (Histone deacetylase) was 34 µM, the IC50 [5] was over 20 µM and the inhibition [6] was 46%.
With C[C@H]1[C@H](C)CC[C@]2(C)CC[C@]3(C)C(=CC(=O)[C@@H]4[C@@]5(C)CC[C@@H](O)[C@](C)(NC(=O)CCCCC(=O)O)[C@@H]5CC[C@]43C)[C@H]12 the IC50 [1] was over 20 µM, the IC50 (MCF7) was 18 µM and the IC50 [2] was 14.1 µM. The IC50 (A549) was 19.1 µM, the IC50 [4] was over 20 µM and the IC50 [5] was over 20 µM.
With COC(=O)CCCC(=O)N[C@]1(C)[C@@H]2CC[C@]3(C)[C@H](C(=O)C=C4[C@@H]5[C@@H](C)[C@H](C)CC[C@]5(C)CC[C@]43C)[C@@]2(C)CC[C@H]1OC(C)=O the IC50 [1] was 17.6 µM, the IC50 (MCF7) was over 20 µM and the IC50 [2] was over 20 µM. For the same compound, the IC50 (A549) was 7.4 µM, the IC50 [4] was over 20 µM and the IC50 [5] was over 20 µM.
COC(=O)CCCCCCC(=O)N[C@]1(C)[C@@H]2CC[C@]3(C)[C@H](C(=O)C=C4[C@@H]5[C@@H](C)[C@H](C)CC[C@]5(C)CC[C@]43C)[C@@]2(C)CC[C@H]1OC(C)=O showed an IC50 [1] of over 20 µM, an IC50 (MCF7) of under 0.25 µM and an IC50 [2] of 8 µM. It also gave an IC50 (A549) of 2 µM, an IC50 [4] of over 20 µM and an IC50 [5] of 15.7 µM.
C[C@H]1[C@H](C)CC[C@]2(C)CC[C@]3(C)C(=CC[C@@H]4[C@@]5(C)CC[C@@H](O)[C@](C)(NC(=O)CCCCCCC(=O)O)[C@@H]5CC[C@]43C)[C@H]12 gave an IC50 [1] of over 20 µM, an IC50 (MCF7) of over 20 µM and an IC50 [2] of over 20 µM. The IC50 (A549) was over 20 µM, the IC50 [4] was over 20 µM and the IC50 [5] was over 20 µM.
COC(=O)CCCCCCCC(=O)N[C@]1(C)[C@@H]2CC[C@]3(C)[C@H](CC=C4[C@@H]5[C@@H](C)[C@H](C)CC[C@]5(C)CC[C@]43C)[C@@]2(C)CC[C@H]1OC(C)=O gave an IC50 [1] of over 20 µM, an IC50 (MCF7) of 17 µM and an IC50 [2] of over 20 µM. The IC50 (A549) was over 20 µM, the IC50 [4] was over 20 µM and the IC50 [5] was over 20 µM.
Work on CC(=O)O[C@@H]1CC[C@]2(C)[C@H]3C(=O)C=C4[C@@H]5[C@@H](C)[C@H](C)CC[C@]5(C)CC[C@@]4(C)[C@]3(C)CC[C@H]2[C@@]1(C)N yielded an IC50 [1] of 6.1 µM, an IC50 (MCF7) of 14 µM and an IC50 [2] of 15.1 µM. For the same compound, the IC50 (A549) was 6 µM, the IC50 [4] was 7.1 µM and the IC50 [5] was 15.3 µM.
In the case of C[C@H]1[C@H](C)CC[C@]2(C)CC[C@]3(C)C(=CC(=O)[C@@H]4[C@@]5(C)CC[C@@H](O)[C@](C)(NC(=O)CCCCC(=O)NO)[C@@H]5CC[C@]43C)[C@H]12, the IC50 [1] is reported as 6.6 µM, the IC50 (MCF7) is reported as over 20 µM and the IC50 [2] is reported as 13.1 µM. The inhibition [3] was 57%, the IC50 (A549) was 3.1 µM and the IC50 [4] was 7.2 µM. It also gave an IC50 (Histone deacetylase) of 42 µM, an IC50 [5] of over 20 µM and an inhibition [6] of 37%.
CC(=O)O[C@@H]1CC[C@]2(C)[C@H]3CC=C4[C@@H]5[C@@H](C)[C@H](C)CC[C@]5(C)CC[C@@]4(C)[C@]3(C)CC[C@H]2[C@@]1(C)N gave an IC50 [1] of 10 µM, an IC50 (MCF7) of 6.9 µM and an IC50 [2] of 7.2 µM. The IC50 (A549) was 13.2 µM, the IC50 [4] was 13.9 µM and the IC50 [5] was 8.7 µM.
C[C@H]1[C@H](C)CC[C@]2(C)CC[C@]3(C)C(=CC[C@@H]4[C@@]5(C)CC[C@@H](O)[C@](C)(NC(=O)CCCCCCCC(=O)O)[C@@H]5CC[C@]43C)[C@H]12 gave an IC50 [1] of over 20 µM, an IC50 (MCF7) of 16.5 µM and an IC50 [2] of 15.9 µM. The IC50 (A549) was over 20 µM, the IC50 [4] was over 20 µM and the IC50 [5] was over 20 µM.
C[C@H]1[C@H](C)CC[C@]2(C)CC[C@]3(C)C(=CC[C@@H]4[C@@]5(C)CC[C@@H](O)[C@](C)(NC(=O)CCCCC(=O)O)[C@@H]5CC[C@]43C)[C@H]12 showed an IC50 [1] of over 20 µM, an IC50 (MCF7) of over 20 µM and an IC50 [2] of over 20 µM. For the same compound, the IC50 (A549) was over 20 µM, the IC50 [4] was over 20 µM and the IC50 [5] was over 20 µM.
In the case of C[C@H]1[C@H](C)CC[C@]2(C)CC[C@]3(C)C(=CC[C@@H]4[C@@]5(C)CC[C@@H](O)[C@](C)(NC(=O)CCCCCCCC(=O)NO)[C@@H]5CC[C@]43C)[C@H]12, the IC50 [1] is reported as 12.4 µM, the IC50 (MCF7) is reported as 6.4 µM and the IC50 [2] is reported as 11.9 µM. For the same compound, the inhibition [3] was 45%, the IC50 (A549) was 15 µM and the IC50 [4] was over 20 µM. The IC50 (Histone deacetylase) was over 50 µM, the IC50 [5] was 11.8 µM and the inhibition [6] was 34%.
